Reference: patent publication US20250206745A1, “PYRROLOPYRIDAZINE DERIVATIVES AND RELATED USES” (NodThera Limited, priority 2023, published 2025)
Where a name gives a salt, the structure may show the parent alone.

Legend:
[1] = tested on: IL-1β release upon NLRP3 activation in peripheral blood mononuclear cells (PBMC); assay: PBMC IC50 Determination Assay; type: cell-based; settings: Homo sapiens; inhibition of IL-1β release; PBMC primed with LPS, stimulated with ATP or nigericin; ELISA or HTRF
Method: The compounds of the present disclosure were tested for their inhibitory activity against IL-1β release upon NLRP3 activation in peripheral blood mononuclear cells (PBMC).
Protocol A. PBMC were isolated from buffy coats by density gradient centrifugation on Histopaque-1077 (Sigma, cat no. 10771). Isolated cells were seeded into the wells of a 96-well plate and incubated for 3 h with lipopolysaccharide (LPS). Following medium exchange, the compounds of the present disclosure were added (a single compound per well) and the cells were incubated for 30 min. Next, the cells were stimulated either with ATP (5 mM) or nigericin (10 μM) for 1 h and the cell culture media from the wells were collected for further analysis.
The release of IL-1β into the media was determined by a quantitative detection of IL-1β in the media using an IL-1β enzyme-linked immunosorbent assay (ELISA) Ready-SET-Go!, eBioscience cat. No. 88-7261-88. Briefly, in a first step, high affinity binding plates (Corning, Costar 9018 or NUNC Maxisorp Cat No. 44-2404) were coated overnight at 4° C. with specific capture antibody included in the kit (anti-human IL-1β ref. 14-7018-68). Subsequently, plates were blocked with blocking buffer for 1 h at room temperature (rt) and after washing with a buffer (PBS with 0.05% Tween-20) incubated with protein standard and culture media. After 2 h of incubation at rt, plates were washed and incubated with biotinylated detection antibody included in the kit (anti-human IL-1β Biotin ref. 33-7110-68) for 1 h at rt. Plates were washed and incubated with HRP-streptavidin for 30 min at rt and washed again. The signal was developed after addition of 3,3′,5,5′-tetramethylbenzidine-peroxidase (TMB) until colour appeared and the reaction was stopped by 2 M H2SO4. A microplate spectrophotometer (BioTek) was used to detect signals with 450 nm. The detection range of IL-1β ELISA was […].
Protocol B. PBMC were isolated from buffy coats by density gradient centrifugation on Histopaque-1077 (Sigma, cat no. 10771). Isolated cells were seeded into the wells (280,000 cells/well) of a 96-well plate and incubated for 3 h with lipopolysaccharide (LPS, 1 μg/mL diluted 1000× from a 1 mg/mL stock solution). The compounds of the present disclosure were added (a single compound per well) and the cells were incubated for 30 min. Next, the cells were stimulated with ATP (5 mM final concentration diluted 20× from a 100 mM stock solution) for 1 h and the cell culture media from the wells were collected for further analysis.
The release of IL-1β into the media was determined by quantitative detection of IL-1β in the media using HTRF®, CisBio cat. No. 62HIL1BPEH. Briefly, cell culture supernatant were dispensed directly into the assay plate containing antibodies labelled with the HTRF® donor and acceptor. A microplate spectrophotometer (BMG) was used to detect signals at 655 nm and 620 nm. The detection range of IL-1β HTRF® was 39-6500 pg/mL.

[2] = tested on: IL-1β release upon NLRP3 activation in phorbol 12-myristate 13-acetate (PMA)-differentiated THP-1 cells; assay: THP-1 IC50 Determination Assay; type: cell-based; settings: Homo sapiens, inhibition of IL-1β release, LPS, nigericin, ELISA
Method: The compounds of the present disclosure were tested for their inhibitory activity against IL-1β release upon NLRP3 activation in phorbol 12-myristate 13-acetate (PMA)-differentiated THP-1 cells.
THP-1 cells stored in liquid nitrogen were thawed in a 37° C. water bath. The cells were added into complete RPMI 1640 medium (FBS (56 mL), 100× Penicillin-Streptomycin (5.6 mL) and 0.05 mM 2-Mercaptoethanol in RPMI 1640 Medium (500 mL)) and centrifuged for 5 min at 1000 rpm. The supernatant was discarded and the cells resuspended into new cell culture medium for culturing. Cells were cultured in cell culture medium and passaged every 3-4 days to maintain cell density between 4×10^5 and 1.5×10^6 cells/mL. The cells were diluted to 0.8×10^6 cells/mL and grown in a T150 flask with PMA (final concentration 5 ng/mL). The flask was incubated in a 37° C. incubator with a humidified atmosphere of 5% CO2 for −40 hours. After −40 hours of PMA differentiation, the flask was washed with DPBS. Cells were digested with Trypsin LE for about 5 min at room temperature, and digestion was terminated using complete RPMI 1640 medium. Cells were centrifuged and resuspended (1000 rpm, 3 min). The supernatant was discarded and cells washed with DPBS, centrifuged and resuspended cells (1000 rpm, 5 min). Cells were plated at 30,000 cells/well in a 384-well PP plate and treated with 25 ng/mL LPS solution diluted in serum-free medium (45 μL). The plate was incubated in a 37° C. incubator with a humidified atmosphere of 5% CO2 for 2 hours. Compounds (from 10 mM DMSO solution) were dispensed and serially diluted by 1:3 eight times, with final 0.5% DMSO concentration. NLRP3 inflammasome was activated with nigericin (5 μL), the plate was centrifuged (1000 rpm, 30 s) and incubated in a 37° C. incubator with a humidified atmosphere of […] for 2 hours. 35 μL/well of supernatant was removed and IL-1β levels determined by ELISA assay (Mabtech 3416-1H-20) according to the manufacturer's instructions.

Compound | IC50 [2] [nM] | IC50 [1] [nM]
CC(=O)N1CCC(Cn2ccc3cc(-c4c(C)cc(Cl)cc4O)nnc32)CC1 [Compound 9, 1-(4-{[3-(4-Chloro-2-hydroxy-6-methylphenyl)-7H-pyrrolo[2,3-c]pyridazin-7-yl]methyl}piperidin-1-yl)ethan-1-one] | 30 to 100 | 30 to 100
Cc1cc(Cl)cc(O)c1-c1cc2ccn(C(=O)N3CCN(C)CC3)c2nn1 [Compound 50, 5-Chloro-3-methyl-2-[7-(4-methylpiperazine-1-carbonyl)-7H-pyrrolo[2,3-c]pyridazin-3-yl]phenol hydrochloride] | 300 to 1000 | 3000 to 10000
CC(=O)N1CCCCC1Cn1ccc2cc(-c3c(C)cc(Cl)cc3O)nnc21 (centres unmarked) [Compound 57, 1-(2-{[3-(4-Chloro-2-hydroxy-6-methylphenyl)-7H-pyrrolo[2,3-c]pyridazin-7-yl]methyl}piperidin-1-yl)ethan-1-one] | 30 to 100 | 30 to 100
Cc1cc(Cl)cc(O)c1-c1cc2ccn(CC3CCN(C4COC4)CC3)c2nn1 [Compound 15, 5-Chloro-3-methyl-2-(7-{[1-(oxetan-3-yl)piperidin-4-yl]methyl}-7H-pyrrolo[2,3-c]pyridazin-3-yl)phenol] | 100 to 300 | 100 to 300
Cc1cc(Cl)cc(O)c1-c1cc2ccn(CC3CCN(C)C(=O)C3)c2nn1 (centres unmarked) [Compound 11, 4-{[3-(4-Chloro-2-hydroxy-6-methylphenyl)-7H-pyrrolo[2,3-c]pyridazin-7-yl]methyl}-1-methylpiperidin-2-one] | 100 to 300 | 100 to 300
Cc1cc(Cl)cc(O)c1-c1cc2ccn(CCN3CCCCC3)c2nn1 [Compound 38, 5-Chloro-3-methyl-2-{7-[2-(piperidin-1-yl)ethyl]-7H-pyrrolo[2,3-c]pyridazin-3-yl}phenol hydrochloride] | 300 to 1000 | 300 to 1000
Cc1cc(Cl)cc(O)c1-c1cc2ccn(CC3CCCN(C)C3)c2nn1 (centres unmarked) [Compound 8, 5-Chloro-3-methyl-2-{7-[(1-methylpiperidin-3-yl)methyl]-7H-pyrrolo[2,3-c]pyridazin-3-yl}phenol] | 100 to 300 | 30 to 100
Cc1cc(C#N)cc(O)c1-c1cc2ncn(CC3CCN(C)CC3)c2nn1 [Compound 73, 3-Hydroxy-5-methyl-4-{7-[(1-methylpiperidin-4-yl)methyl]-7H-imidazo[4,5-c]pyridazin-3-yl}benzonitrile] | 300 to 1000 | 100 to 300
Cc1cc(Cl)cc(O)c1-c1cc2ccn(CC3CC4(C3)CN(C)C4)c2nn1 [Compound 52, 5-Chloro-3-methyl-2-[7-({2-methyl-2-azaspiro[3.3]heptan-6-yl}methyl)-7H-pyrrolo[2,3-c]pyridazin-3-yl]phenol hydrochloride] | 100 to 300 | 300 to 1000
Cc1cc(Cl)cc(O)c1-c1cc2ccn(CCCN(C)C)c2nn1 [Compound 29, 5-Chloro-2-{7-[3-(dimethylamino)propyl]-7H-pyrrolo[2,3-c]pyridazin-3-yl}-3-methylphenol hydrochloride] | 1000 to 3000 | 1000 to 3000
Cc1cc(Cl)cc(O)c1-c1cc2ccn(CC3CN(C)CCO3)c2nn1 (centres unmarked) [Compound 34, 5-Chloro-3-methyl-2-{7-[(4-methylmorpholin-2-yl)methyl]-7H-pyrrolo[2,3-c]pyridazin-3-yl}phenol hydrochloride] | 300 to 1000 | 300 to 1000
COC(=O)N1CCC(Cn2ccc3cc(-c4c(C)cc(Cl)cc4O)nnc32)CC1 [Compound 17, Methyl 4-{[3-(4-chloro-2-hydroxy-6-methylphenyl)-7H-pyrrolo[2,3-c]pyridazin-7-yl]methyl}piperidine-1-carboxylate] | 100 to 300 | 100 to 300

Continued, in another order:

IC50 [2] [nM] | Compound | IC50 [1] [nM]
30 to 100 | Cc1cc(Cl)cc(O)c1-c1cc2ncn(C[C@H]3CCN(C)C3)c2nn1 [Compound 74, 5-Chloro-3-methyl-2-(7-{[(3S)-1-methylpyrrolidin-3-yl]methyl}-7H-imidazo[4,5-c]pyridazin-3-yl)phenol hydrochloride] | 30 to 100
1000 to 3000 | Cc1cc(Cl)cc(O)c1-c1cc2ccn(C[C@@H]3CCN(C)C[C@H]3F)c2nn1 (relative stereo) [Compound 51, Trans-5-chloro-2-{7-[(3-fluoro-1-methylpiperidin-4-yl)methyl]-7H-pyrrolo[2,3-c]pyridazin-3-yl}-3-methylphenol hydrochloride] | 100 to 300
300 to 1000 | Cc1cc(Cl)cc(O)c1-c1cc2ccn(CC(=O)N3CCCCC3)c2nn1 [Compound 36, 2-[3-(4-Chloro-2-hydroxy-6-methylphenyl)-7H-pyrrolo[2,3-c]pyridazin-7-yl]-1-(piperidin-1-yl)ethan-1-one] | 300 to 1000
300 to 1000 | COCCn1ccc2cc(-c3c(C)cc(Cl)cc3O)nnc21 [Compound 21, 5-Chloro-2-[7-(2-methoxyethyl)-7H-pyrrolo[2,3-c]pyridazin-3-yl]-3-methylphenol] | 100 to 300
300 to 1000 | Cc1cc(C(F)(F)F)cc(O)c1-c1cc2ccn(C)c2nn1 [Compound 6, 3-Methyl-2-{7-methyl-7H-pyrrolo[2,3-c]pyridazin-3-yl}-5-(trifluoromethyl)phenol] | 300 to 1000
100 to 300 | Cc1cc(Cl)cc(O)c1-c1cc2ccn(CC3CCCO3)c2nn1 (centres unmarked) [Compound 43, 5-Chloro-3-methyl-2-{7-[(oxolan-2-yl)methyl]-7H-pyrrolo[2,3-c]pyridazin-3-yl}phenol] | 100 to 300
300 to 1000 | Cc1cc(Cl)cc(O)c1-c1cc2ccn(CCN(C)C)c2nn1 [Compound 22, 5-Chloro-2-{7-[2-(dimethylamino)ethyl]-7H-pyrrolo[2,3-c]pyridazin-3-yl}-3-methylphenol hydrochloride] | 300 to 1000
300 to 1000 | Cc1cc(Cl)cc(O)c1-c1cc2ccn(CC3CCN(CC#N)CC3)c2nn1 [Compound 26, 2-(4-{[3-(4-Chloro-2-hydroxy-6-methylphenyl)-7H-pyrrolo[2,3-c]pyridazin-7-yl]methyl}piperidin-1-yl)acetonitrile] | 300 to 1000
300 to 1000 | Cc1cc(C(F)(F)F)cc(O)c1-c1cc2cc[nH]c2nn1 [Compound 5, 3-Methyl-2-{7H-pyrrolo[2,3-c]pyridazin-3-yl}-5-(trifluoromethyl)phenol] | 300 to 1000
300 to 1000 | Cc1cc(Cl)cc(O)c1-c1cc2ccn(CC3CCCOC3)c2nn1 (centres unmarked) [Compound 42, 5-Chloro-3-methyl-2-{7-[(oxan-3-yl)methyl]-7H-pyrrolo[2,3-c]pyridazin-3-yl}phenol] | 100 to 300
